The text below walks through data of PubChem BioAssay (NCI).

Test systems include PC-3 prostate; NCI/ADR-RES ovarian; MCF7 breast; T-47D breast; BT-549 breast.
Common to all, as to experiment: NCI tumour cell line growth inhibition, 48 h

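The compound was tested at five concentrations on cells cultured in 96-well plates, with a 48-hour exposure period. Abbreviation: GI50, concentration required for 50% inhibition of growth. TGI denotes the concentration required for complete inhibition of growth.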 A value given as a limit tells only on which side of the number the result lay.

On to `CCOC(=O)/C(=C/CC/C(C)=C/CC/C(C)=C/CCc1ccoc1)CC(=O)N1CCCCC1`, for which the GI50 is 3.1 µM in the assay on PC-3 prostate; 3.88 µM in the assay on NCI/ADR-RES ovarian; 2.11 µM in the assay on MCF7 breast; 2.37 µM in the assay with T-47D breast; 4.03 µM in the assay on BT-549 breast. For the same molecule, the TGI with PC-3 prostate is 17.9 µM; in the assay on NCI/ADR-RES ovarian it was 23.7 µM; with MCF7 breast, 5.92 µM; with T-47D breast, 8.65 µM; in the assay with BT-549 breast it was 17.2 µM.
Take `CCN(C(=O)N1CCN(c2cc3c(cc2F)c(=O)c(C(=O)O)cn3C2CC2)CC1)c1nc(-c2ccccc2)cs1`: the GI50 in the assay on PC-3 prostate was 2.74 µM; in the assay on NCI/ADR-RES ovarian, 2.88 µM; with MCF7 breast it was 3.15 µM; with T-47D breast, 2.57 µM; with BT-549 breast it was 2.27 µM. Besides, the TGI is more than 100 µM with PC-3 prostate; more than 100 µM in the assay on NCI/ADR-RES ovarian; more than 100 µM in the assay with MCF7 breast; more than 100 µM with T-47D breast; 7.91 µM in the assay on BT-549 breast.
In the case of `Oc1ccc(NC(=S)Nc2ccccc2)cc1`, the GI50 in the assay with PC-3 prostate, in the assay on NCI/ADR-RES ovarian, in the assay with MCF7 breast, in the assay with T-47D breast and with BT-549 breast was more than 100 µM throughout. Further, the TGI with PC-3 prostate, with NCI/ADR-RES ovarian, in the assay on MCF7 breast, with T-47D breast and in the assay with BT-549 breast was more than 100 µM each time.
`O=C(Nc1ccc(OS(=O)(=O)c2ccc(F)cc2)cc1)C12CC3CC(CC(C3)C1)C2`: the GI50 is 0.647 µM in the assay on PC-3 prostate; 3.15 µM with NCI/ADR-RES ovarian; 0.641 µM in the assay with MCF7 breast; 0.831 µM in the assay on T-47D breast; 4.37 µM with BT-549 breast. The TGI in the assay on PC-3 prostate is more than 100 µM; in the assay with NCI/ADR-RES ovarian it was more than 100 µM; with MCF7 breast it was more than 100 µM; in the assay on T-47D breast, more than 100 µM; in the assay with BT-549 breast, 75.8 µM.
Turning to `OCC#CCOCC#Cc1ccccc1C#CCOCC#CCO`, the GI50 is 22.5 µM in the assay with PC-3 prostate, 46.6 µM with NCI/ADR-RES ovarian, 40.7 µM with MCF7 breast and 34.2 µM in the assay on BT-549 breast. The TGI was more than 100 µM in the assay with PC-3 prostate, more than 100 µM in the assay with NCI/ADR-RES ovarian, more than 100 µM with MCF7 breast and 93.2 µM in the assay with BT-549 breast.
As to `NC(N)=NN=c1c(=O)c2ccccc2c1=O`, the GI50 in the assay on PC-3 prostate was 12.7 µM; in the assay with NCI/ADR-RES ovarian it was 10.4 µM; in the assay with MCF7 breast it was 8.89 µM; with T-47D breast, 23.5 µM; in the assay with BT-549 breast it was 15.7 µM. Also, the TGI is 29.8 µM with PC-3 prostate; 31.7 µM with NCI/ADR-RES ovarian; 27.9 µM in the assay with MCF7 breast; 50.4 µM with T-47D breast; 29.2 µM in the assay on BT-549 breast.
Regarding `O=c1cc(-c2ccc(Cl)cc2)[nH]c2ccccc12`, the GI50 in the assay on PC-3 prostate was 35.2 µM; in the assay with NCI/ADR-RES ovarian, 27.1 µM; in the assay on MCF7 breast, 41.3 µM; in the assay on T-47D breast, 63.2 µM; in the assay on BT-549 breast, 29.4 µM. Besides, the TGI in the assay with PC-3 prostate, in the assay with NCI/ADR-RES ovarian, in the assay on MCF7 breast, with T-47D breast and in the assay on BT-549 breast was more than 100 µM throughout.
`O=C1Cc2c(-c3ccccc3)cc(-c3ccccc3)nc2-c2ccccc2N1`: the TGI turned out to be 42.9 µM in the assay on PC-3 prostate, 18.6 µM in the assay on NCI/ADR-RES ovarian, 38.4 µM in the assay on T-47D breast and 22.5 µM in the assay with BT-549 breast.
Consider `C[C@@H](O)[C@@H](C)Oc1nc(Nc2ccc(S(=N)(=O)C3CC3)cc2)ncc1C(F)(F)F` (some centres not stated), for which the GI50 in the assay on PC-3 prostate is 0.0401 µM; in the assay on NCI/ADR-RES ovarian, 0.132 µM; in the assay with MCF7 breast, 0.0169 µM; with T-47D breast it was 0.0386 µM; with BT-549 breast it was 0.0274 µM. Also, the TGI in the assay on PC-3 prostate was 0.443 µM; in the assay on NCI/ADR-RES ovarian, 28.5 µM; in the assay on MCF7 breast it was 29.7 µM; in the assay with T-47D breast it was 6.62 µM; in the assay on BT-549 breast, 0.182 µM.
For `COc1ccc(C(=O)/C=C/c2sc(Cl)nc2Cl)cc1`, the GI50 in the assay on PC-3 prostate is 2.83 µM; in the assay with NCI/ADR-RES ovarian, 2.55 µM; in the assay on MCF7 breast, 1.75 µM; with T-47D breast, 2.93 µM; with BT-549 breast, 0.332 µM. The TGI in the assay on PC-3 prostate was 11.6 µM; in the assay on NCI/ADR-RES ovarian, 10.2 µM; in the assay on MCF7 breast, 4 µM; in the assay on T-47D breast, 9.23 µM; in the assay on BT-549 breast, 1.7 µM.
Turning to `CC(C)C[C@H](CC(=O)O)C(=O)N[C@@H](Cc1c[nH]c2ccccc12)C(=O)N[C@@H](C)c1ccccc1`, the GI50 with PC-3 prostate, with NCI/ADR-RES ovarian, with MCF7 breast, with T-47D breast and in the assay on BT-549 breast was more than 25 µM in each case. The TGI in the assay with PC-3 prostate, with NCI/ADR-RES ovarian, in the assay with MCF7 breast, with T-47D breast and with BT-549 breast was more than 25 µM in each case.
Regarding `O=C(COc1ccc(/C=C2\Oc3ccc4ccccc4c3C2=O)cc1)c1ccc([N+](=O)[O-])cc1`, the GI50 in the assay on PC-3 prostate was 9.36 µM; in the assay on NCI/ADR-RES ovarian, 21.8 µM; in the assay with MCF7 breast it was 1.71 µM; with T-47D breast, 2.85 µM; in the assay with BT-549 breast, 11.1 µM. The TGI in the assay with PC-3 prostate was found to be 21.3 µM; in the assay on NCI/ADR-RES ovarian, 82.1 µM; in the assay on MCF7 breast, 20.3 µM; in the assay on T-47D breast, 23.8 µM; in the assay with BT-549 breast, 26.4 µM.
On to `N#C/C(=C\c1ccc(O)c(O)c1)C(=O)NCc1ccc(C(F)(F)F)cc1`, for which the GI50 with PC-3 prostate is 30.1 µM; in the assay with NCI/ADR-RES ovarian, 5.19 µM; with MCF7 breast it was 21.3 µM; in the assay on T-47D breast, 8.72 µM; in the assay with BT-549 breast, 10.6 µM. For the same molecule, the TGI in the assay on PC-3 prostate is more than 100 µM; in the assay on NCI/ADR-RES ovarian, 24.7 µM; in the assay with MCF7 breast it was more than 69 µM; in the assay with T-47D breast, 59.8 µM; in the assay on BT-549 breast it was more than 53.7 µM.
Regarding `CCn1cnc(C[C@H](NC(=O)[C@H](CCCCNC(=O)Nc2cc(C(F)(F)F)cc(C(F)(F)F)c2)NC(=O)Nc2cc(C(F)(F)F)cc(C(F)(F)F)c2)C(=O)OC)c1`, the GI50 with PC-3 prostate is 2.82 µM; in the assay on NCI/ADR-RES ovarian it was more than 10 µM; in the assay with MCF7 breast, 3.51 µM; with T-47D breast, 4.83 µM; with BT-549 breast, more than 10 µM. Moreover, the TGI in the assay on PC-3 prostate, in the assay with NCI/ADR-RES ovarian, in the assay with MCF7 breast, in the assay on T-47D breast and with BT-549 breast was more than 10 µM in each case.
